One assay concerns the target Cholinesterase (Canis lupus familiaris, UniProt P32750). Kind of assay: Inhibition of dog serum BChE using butrylthiocholine iodide as substrate by spectrophotometry based Ellman's method. In general terms: In Ellman's method for cholinesterases, released thiocholine reacts with DTNB.
Assay [1] addresses Acetylcholinesterase (Electrophorus electricus, UniProt O42275). Kind of assay: Inhibition of Electric eel AChE using […] as substrate by spectrophotometry based Ellman's method.
Assay [2] deals with T1, Acetylcholinesterase (Homo sapiens, UniProt P22303). Kind of assay: Inhibition of AChE (unknown origin) using […] as substrate incubated for 15 mins by Ellman's method.
T1 sequence (P22303 whole entry): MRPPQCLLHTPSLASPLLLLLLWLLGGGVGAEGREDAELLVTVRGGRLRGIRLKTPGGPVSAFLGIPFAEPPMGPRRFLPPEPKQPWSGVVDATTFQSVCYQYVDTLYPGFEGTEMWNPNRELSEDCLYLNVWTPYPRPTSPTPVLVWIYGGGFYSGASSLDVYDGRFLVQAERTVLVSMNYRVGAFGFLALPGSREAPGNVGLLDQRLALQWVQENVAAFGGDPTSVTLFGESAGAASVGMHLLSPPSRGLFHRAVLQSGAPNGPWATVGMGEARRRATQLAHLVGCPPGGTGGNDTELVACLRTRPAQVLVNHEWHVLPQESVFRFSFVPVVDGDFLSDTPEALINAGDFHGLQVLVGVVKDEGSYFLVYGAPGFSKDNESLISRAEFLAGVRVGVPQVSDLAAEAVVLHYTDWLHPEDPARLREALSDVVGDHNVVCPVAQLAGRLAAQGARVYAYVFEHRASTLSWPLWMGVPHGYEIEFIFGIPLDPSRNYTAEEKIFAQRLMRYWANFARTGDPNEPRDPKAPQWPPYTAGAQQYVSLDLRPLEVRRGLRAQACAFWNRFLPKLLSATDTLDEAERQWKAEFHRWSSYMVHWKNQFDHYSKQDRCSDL
The target in assay [3] is T1, Acetylcholinesterase. Kind of assay: Inhibition of AChE (unknown origin).
The nature of assay [4]: Selectivity index, ratio of IC50 for dog serum BChE to IC50 for Electric eel AChE.
Assay [5] addresses Acetylcholinesterase (Electrophorus electricus) (UniProt O42275). Put plainly: Competitive inhibition of Electric eel AChE using […] as substrate by spectrophotometry based Lineweaver-Burk plot analysis.

Data on 15 compounds can be found in ChEMBL document CHEMBL4627271, “Design, synthesis and evaluation of new 4-arylthiazole-2-amine derivatives as acetylcholinesterase inhibitors” (Bioorg Med Chem Lett, 2020).

The structures appear in SMILES notation. Calls of active or inactive are those of the source. No cut-off for these calls is given here. Where only a bound is given, the exact number is not on record here.

Sequence of Acetylcholinesterase (Electrophorus electricus, UniProt O42275) (O42275 whole entry): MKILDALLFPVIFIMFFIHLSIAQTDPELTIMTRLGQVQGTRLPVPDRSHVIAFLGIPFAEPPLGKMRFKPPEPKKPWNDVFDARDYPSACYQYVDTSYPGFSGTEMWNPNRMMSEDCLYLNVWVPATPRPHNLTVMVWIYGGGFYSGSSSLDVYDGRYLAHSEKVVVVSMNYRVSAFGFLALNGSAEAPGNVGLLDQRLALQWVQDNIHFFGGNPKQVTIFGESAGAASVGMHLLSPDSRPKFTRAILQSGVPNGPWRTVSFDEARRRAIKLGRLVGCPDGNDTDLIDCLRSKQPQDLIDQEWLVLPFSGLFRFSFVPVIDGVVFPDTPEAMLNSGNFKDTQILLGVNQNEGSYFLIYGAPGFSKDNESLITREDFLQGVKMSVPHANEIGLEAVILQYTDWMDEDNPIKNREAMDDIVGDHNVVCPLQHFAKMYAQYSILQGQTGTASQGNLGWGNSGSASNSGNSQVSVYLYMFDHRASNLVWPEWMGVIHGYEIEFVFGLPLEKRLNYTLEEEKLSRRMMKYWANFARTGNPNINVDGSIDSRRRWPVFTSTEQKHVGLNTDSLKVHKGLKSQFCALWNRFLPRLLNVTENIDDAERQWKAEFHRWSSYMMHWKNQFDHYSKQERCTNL
Sequence of Cholinesterase (P32750 whole entry): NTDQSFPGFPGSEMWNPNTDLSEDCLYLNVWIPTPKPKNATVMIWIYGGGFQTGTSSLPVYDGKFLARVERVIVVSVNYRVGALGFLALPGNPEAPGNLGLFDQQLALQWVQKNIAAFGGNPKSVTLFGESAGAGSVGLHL
Sequence of Acetylcholinesterase (Electrophorus electricus) (O42275 24-633 limits assumed): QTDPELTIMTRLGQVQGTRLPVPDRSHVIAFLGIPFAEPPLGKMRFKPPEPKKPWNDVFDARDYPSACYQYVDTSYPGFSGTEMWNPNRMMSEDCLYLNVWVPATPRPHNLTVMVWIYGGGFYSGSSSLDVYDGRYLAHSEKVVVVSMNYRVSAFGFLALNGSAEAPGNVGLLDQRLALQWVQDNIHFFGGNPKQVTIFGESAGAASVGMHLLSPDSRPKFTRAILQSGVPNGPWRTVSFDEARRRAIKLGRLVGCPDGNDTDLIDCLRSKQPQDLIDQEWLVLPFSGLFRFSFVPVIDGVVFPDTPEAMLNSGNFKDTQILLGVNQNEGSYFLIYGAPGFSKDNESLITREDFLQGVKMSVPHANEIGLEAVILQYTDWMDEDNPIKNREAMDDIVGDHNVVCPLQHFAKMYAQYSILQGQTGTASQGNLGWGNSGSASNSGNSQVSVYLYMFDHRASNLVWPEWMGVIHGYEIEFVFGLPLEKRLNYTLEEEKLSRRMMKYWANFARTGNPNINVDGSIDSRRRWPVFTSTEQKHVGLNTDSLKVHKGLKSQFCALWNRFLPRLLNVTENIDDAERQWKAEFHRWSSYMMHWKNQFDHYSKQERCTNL

For orientation: IC50 means the concentration at which inhibition is half-maximal. Read a low IC50 as inhibition by little substance. With `COc1ccc(CC(=O)Nc2ncc(-c3ccc(OCCN4CCCC4)cc3)s2)cc1OC`, the IC50 against Cholinesterase is 23.9 µM; at Acetylcholinesterase [1], 6.31 µM.
At Acetylcholinesterase [2], `COc1ccc(CCC(=O)Nc2nc(-c3cc4ccccc4oc3=O)cs2)cc1OC` gave an IC50 of 0.74 µM.
At Cholinesterase, `C/C=C1\[C@H]2C=C(C)C[C@]1(N)c1ccc(=O)[nH]c1C2` [HUPERZINE A] returned an IC50 greater than 10000 µM.
The compound `COc1ccc(-c2csc(NC(=O)CCN3CCCC3)n2)cc1` displayed an IC50 against Acetylcholinesterase [3] of 0.51 µM.
As for `COc1ccc(C(=O)Nc2ncc(-c3ccc(OCCCN4CCCC4)cc3)s2)cc1OC`, the figures for the IC50 against Cholinesterase and on Acetylcholinesterase [1] were 8.1 µM and 39.3 µM, respectively.
The like results for `COc1ccc(CC(=O)Nc2ncc(-c3ccc(OCCCCNC4CCN(Cc5ccccc5)CC4)cc3)s2)cc1OC` were, in that order, 7.23 µM and 4.24 µM.
With `CCN(C)C(=O)Oc1cccc([C@H](C)N(C)C)c1` [RIVASTIGMINE], the IC50 on Cholinesterase worked out at 6.27 µM.
For the compound `COc1ccc(CC(=O)Nc2ncc(-c3ccc(OCCCN4CCCC4)cc3)s2)cc1OC`, the IC50 was found to be 6.89 µM on Cholinesterase and 6.51 µM on Acetylcholinesterase [1].
Turning to `COc1ccc(CC(=O)Nc2ncc(-c3ccc(OCCCCN4CCN(Cc5ccccc5)CC4)cc3)s2)cc1OC`, the IC50 on Cholinesterase was 41 µM; on Acetylcholinesterase [1] it was 5.75 µM.
In the case of `COc1ccc(CC(=O)Nc2ncc(-c3ccc(OCCCCN4CCCC4)cc3)s2)cc1OC`, the IC50 against Cholinesterase is 10.2 µM; against Acetylcholinesterase [1], 0.66 µM. The Ratio IC50 in assay [4] is 16. For the same compound, in assay [5], the inhibition entry was “Active”.
Consider `COc1cc(CC(=O)Nc2ncc(-c3ccc(OCCCN4CCCC4)cc3)s2)cc(OC)c1OC`, for which the IC50 against Cholinesterase worked out at 17.3 µM; against Acetylcholinesterase [1] it was 7.84 µM.
As for `COc1ccc(CC(=O)Nc2ncc(-c3ccc(OCCCCN4CCCCC4)cc3)s2)cc1OC`, the IC50 against Cholinesterase worked out at 49.2 µM; at Acetylcholinesterase [1], 0.95 µM. The Ratio IC50 in assay [4] came to 52.
For the compound `COc1ccc(CC(=O)Nc2ncc(-c3ccc(OCCCCSc4ccncc4)cc3)s2)cc1OC`, the values for the IC50 against Cholinesterase and on Acetylcholinesterase [1] were 14.3 µM and 5.5 µM, respectively.
For `COc1ccc(CC(=O)Nc2ncc(-c3ccc(OCCCN4CCCC4)cc3)s2)cc1`, in that order: 9.01 µM and 37.3 µM.
With `COc1ccc(CC(=O)Nc2ncc(-c3ccc(OCCCCCN4CCCC4)cc3)s2)cc1OC`, the IC50 against Cholinesterase stood at 9.85 µM; at Acetylcholinesterase [1], 3.34 µM.
